From ChEMBL document CHEMBL1124916, “Neural networks applied to quantitative structure-activity relationship analysis” (1990)

Tests used:
Assay type in all cases: functional
Mus musculus [1] = species on record: Mus musculus; test: Optimal Dose (OD) which cause maximum increase in the life span, after chronic injection at log (1/C).
Mus musculus [2] = species on record: Mus musculus; test: Optimal Dose (OD) which cause maximum increase in the life span, after singular injection at log (1/C).
Mus musculus [3] = species on record: Mus musculus; test: Minimum Effective Dose (MED) which cause 40% increase in life span, after chronic injection at log (1/C).
Mus musculus [4] = species on record: Mus musculus; test: Minimum Effective Dose (MED) which cause 40% increase in life span, after singular injection at log (1/C).

Row | Structure (SMILES) | OD (Mus musculus [1]) | OD (Mus musculus [2]) | MED (Mus musculus [3]) | MED (Mus musculus [4])
1 | COC(COC(N)=O)C1=C(N2CC2)C(=O)C(C)=C(N2CC2)C1=O (stereo not given) [CARBOQUONE] | 5.66 | 5.03 | 6.41 | 5.81
2 | COC(CO)C1=C(N2CC2)C(=O)C(C)=C(N2CC2)C1=O (stereo not given) | 5.75 | 5.27 | 6.9 | 6.05
3 | COC1=C(N2CC2)C(=O)C(OC)=C(N2CC2)C1=O | 5.17 | 4.32 | 5.59 | 4.81
4 | CCC1=C(N2CC2)C(=O)C(C(COC(N)=O)OC)=C(N2CC2)C1=O (stereo not given) | 5.22 | 4.92 | 6.16 | 5.62
5 | CC1=C(N2CC2)C(=O)C(CCOC(N)=O)=C(N2CC2)C1=O | 5.75 | 5.46 | 6.21 | 5.83
6 | CCC1=C(N2CC2)C(=O)C(CCOC(N)=O)=C(N2CC2)C1=O | 5.48 | 4.88 | 6.25 | 5.98
7 | CCCCCC1=C(N2CC2)C(=O)C(CCCCC)=C(N2CC2)C1=O | 4.52 | 3.62 | 4.63 | 4.07
8 | CC1=C(N2CC2)C(=O)C(C)=C(N2CC2)C1=O | 5.36 | 4.79 | 5.66 | 5.36
9 | CC1=C(N2CC2)C(=O)C(CCCc2ccccc2)=C(N2CC2)C1=O | 4.21 | 3.6 | 4.47 | 3.93
10 | CC1=C(N2CC2)C(=O)C(C(C)COC(N)=O)=C(N2CC2)C1=O (stereo not given) | 5.71 | 5.31 | 6.41 | 5.93
11 | CCOC(COC(N)=O)C1=C(N2CC2)C(=O)C(CC)=C(N2CC2)C1=O (stereo not given) | 5.24 | 4.64 | 5.76 | 5.4
12 | O=C1C(CCO)=C(N2CC2)C(=O)C(CCO)=C1N1CC1 | 6.05 | 5.6 | 6.54 | 5.93
13 | CCCC1=C(N2CC2)C(=O)C(CCOC(N)=O)=C(N2CC2)C1=O | 5.23 | 4.42 | 5.68 | 4.9
14 | CC1=C(N2CC2)C(=O)C(C(C)C)=C(N2CC2)C1=O | 5.21 | 4.69 | 5.6 | 4.96
15 | COCCC1=C(N2CC2)C(=O)C(C)=C(N2CC2)C1=O | 5.42 | 5.12 | 5.57 | 5.19
16 | CCCC1=C(N2CC2)C(=O)C(CCC)=C(N2CC2)C1=O | 4.44 | 4.14 | 4.92 | 4.32
17 | CCC(COC(N)=O)C1=C(N2CC2)C(=O)C(C)=C(N2CC2)C1=O (stereo not given) | 5.66 | 5.2 | 6.18 | 6.03
18 | O=C1C=C(N2CC2)C(=O)C(N2CC2)=C1N1CC1 [TRIAZIQUONE] | 6.19 | 5.74 | 6.45 | 6.02
19 | COCCC1=C(N2CC2)C(=O)C(CCOC)=C(N2CC2)C1=O | 5.31 | 4.71 | 5.69 | 5.18
20 | CCC(OC)C1=C(N2CC2)C(=O)C(C)=C(N2CC2)C1=O (stereo not given) | 5.33 | 4.84 | 5.68 | 5.26
